The results in this text go back to patent US20230348376A1 (TEIJIN PHARMA LIMITED, priority 2020, published 2023).

The structures appear in SMILES notation. pEC50: −log10 of the molar value.

The assay concerns the target T1, human VDR (Homo sapiens, UniProt P11473).
T1 sequence (P11473 1-427): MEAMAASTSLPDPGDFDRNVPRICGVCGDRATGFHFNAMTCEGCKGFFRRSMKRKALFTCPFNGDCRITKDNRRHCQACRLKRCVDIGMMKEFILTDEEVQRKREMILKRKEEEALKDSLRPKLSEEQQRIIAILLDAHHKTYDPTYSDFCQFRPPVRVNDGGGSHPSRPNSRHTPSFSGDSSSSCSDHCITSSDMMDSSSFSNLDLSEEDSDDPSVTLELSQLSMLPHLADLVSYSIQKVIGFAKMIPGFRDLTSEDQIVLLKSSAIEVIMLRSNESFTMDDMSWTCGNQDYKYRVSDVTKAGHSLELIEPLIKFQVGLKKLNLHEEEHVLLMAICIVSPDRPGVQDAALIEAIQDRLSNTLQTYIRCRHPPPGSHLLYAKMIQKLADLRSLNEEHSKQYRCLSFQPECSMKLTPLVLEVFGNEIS
T1 sequence (P19793 1-462 partner): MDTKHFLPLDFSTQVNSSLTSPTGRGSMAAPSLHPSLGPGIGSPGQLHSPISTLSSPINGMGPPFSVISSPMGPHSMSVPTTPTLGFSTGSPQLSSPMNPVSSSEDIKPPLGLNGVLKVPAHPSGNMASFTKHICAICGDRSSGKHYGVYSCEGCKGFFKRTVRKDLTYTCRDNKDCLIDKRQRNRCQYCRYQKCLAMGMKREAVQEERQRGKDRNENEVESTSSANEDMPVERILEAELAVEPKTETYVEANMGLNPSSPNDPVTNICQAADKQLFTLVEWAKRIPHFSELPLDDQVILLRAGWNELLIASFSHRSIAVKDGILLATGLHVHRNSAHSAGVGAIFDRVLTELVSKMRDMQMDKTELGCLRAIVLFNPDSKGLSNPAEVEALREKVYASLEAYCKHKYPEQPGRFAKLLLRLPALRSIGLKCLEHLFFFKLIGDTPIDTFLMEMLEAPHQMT
Nature of the assay: Evaluation of VDR transcription activity in human osteoblasts (HOS cells), luciferase reporter. The settings on record: Activity (EC50, VDR transcription activity), HOS cells transfected with human VDR, human RXRα and DR3 luciferase reporter; 21 hours.
In turn, `C=C1C(O)CC(=C/C=C2\CCC[C@]3(C)[C@@H]([C@H](C)CN4CC[C@@](C)(O)C4)CC[C@@H]23)C[C@H]1O` (stereo in doubt) [Compound B076, (1R,3S)-5-(2-((1R,3aS,7aR,E)-1-((S)-1-((R)-3-hydroxy-3-methylpyrrolidin-1-yl)propan-2-yl)-7a-methyloctahydro-4H-inden-4-ylidene)ethylidene)-2-methylenecyclohexane-1,3-diol] had a pEC50 of 7.00 to 8.00. The value for `C[C@@H](CN1CC[C@@H](F)C1)[C@H]1CC[C@H]2/C(=C/C=C3CC(O)C[C@H](O)C3)CCC[C@]12C` (stereo in doubt) [Compound B098, (1R,3S)-5-(2-((1R,3aS,7aR,E)-1-((R)-1-((R)-3-fluoropyrrolidin-1-yl)propan-2-yl)-7a-methyloctahydro-4H-inden-4-ylidene)ethylidene)cyclohexane-1,3-diol] was 7.00 to 8.00; that for `C[C@@H](CN1CC[C@H](C(F)F)C1)[C@H]1CC[C@H]2/C(=C/C=C3CC(O)C[C@H](O)C3)CCC[C@]12C` (stereo in doubt) [Compound B099, (1R,3S)-5-(2-((1R,3aS,7aR,E)-1-((R)-1-((S)-3-(difluoromethyl)pyrrolidin-1-yl)propan-2-yl)-7a-methyloctahydro-4H-inden-4-ylidene)ethylidene)cyclohexane-1,3-diol] was 7.00 to 8.00; that for `C[C@@H](CN1CC[C@@H](C(F)F)C1)[C@H]1CC[C@H]2/C(=C/C=C3CC(O)C[C@H](O)C3)CCC[C@]12C` (stereo in doubt) [Compound B100, (1R,3S)-5-(2-((1R,3aS,7aR,E)-1-((R)-1-((R)-3-(difluoromethyl)pyrrolidin-1-yl)propan-2-yl)-7a-methyloctahydro-4H-inden-4-ylidene)ethylidene)cyclohexane-1,3-diol] was 8.00 to 9.00. `C[C@@H](CN1CC[C@H](C(C)(F)F)C1)[C@H]1CC[C@H]2/C(=C/C=C3CC(O)C[C@H](O)C3)CCC[C@]12C` (stereo in doubt) [Compound B101, (1R,3S)-5-(2-((1R,3aS,7aR,E)-1-((R)-1-((S)-3-(1,1-difluoroethyl)pyrrolidin-1-yl)propan-2-yl)-7a-methyloctahydro-4H-inden-4-ylidene)ethylidene)cyclohexane-1,3-diol] showed a pEC50 of 7.00 to 8.00. The value for `C[C@@H](CN1CC[C@@H](C(C)(F)F)C1)[C@H]1CC[C@H]2/C(=C/C=C3CC(O)C[C@H](O)C3)CCC[C@]12C` (stereo in doubt) [Compound B102, (1R,3S)-5-(2-((1R,3aS,7aR,E)-1-((R)-1-((R)-3-(1,1-difluoroethyl)pyrrolidin-1-yl)propan-2-yl)-7a-methyloctahydro-4H-inden-4-ylidene)ethylidene)cyclohexane-1,3-diol] was 8.00 to 9.00.

In turn, `C[C@@H](CN1CC[C@@H](CC(F)F)C1)[C@H]1CC[C@H]2/C(=C/C=C3CC(O)C[C@H](O)C3)CCC[C@]12C` (stereo in doubt) [Compound B103, (1R,3 S)-5-(2-((1R,3aS,7aR,E)-1-((R)-1-((S)-3-(2,2-difluoroethyl)pyrrolidin-1-yl)propan-2-yl)-7a-methyloctahydro-4H-inden-4-ylidene)ethylidene)cyclohexane-1,3-diol] showed a pEC50 of 7.00 to 8.00. For `C=C1C(O)CC(=C/C=C2\CCC[C@]3(C)[C@@H]([C@H](C)CCN4CCOC5(CC5)C4)CC[C@@H]23)C[C@H]1O` (stereo in doubt) [Compound D026, (1R,3S)-5-(2-((1R,3aS,7aR,E)-1-((R)-4-(4-oxa-7-azaspiro[2.5]octan-7-yl)butan-2-yl)-7a-methyloctahydro-4H-inden-4-ylidene)ethylidene)-2-methylenecyclohexane-1,3-diol] the value was 8.00 to 9.00. For the compound `C=C1/C(=C\C=C2/CCC[C@]3(C)[C@@H]([C@H](C)CCN4CCOC[C@H]4C)CC[C@@H]23)C[C@@H](O)CC1O` (stereo in doubt) [Compound D046, (1R,3R,Z)-5-(2-((1R,3aS,7aR,E)-7a-methyl-1-((R)-4-((R)-3-methylmorpholino)butan-2-yl)octahydro-4H-inden-4-ylidene)ethylidene)-4-methylenecyclohexane-1,3-diol], the pEC50 was 7.00 to 8.00. With `C=C1[C@H](O)CC(=C/C=C2\CCC[C@]3(C)[C@@H]([C@H](C)CN4CC(F)C4)CC[C@@H]23)C[C@H]1O` [Compound A002, (1R,3R)-5-(2-((1R,3aS,7aR,E)-1-((S)-1-(3-fluoroazetidin-1-yl)propan-2-yl)-7a-methyloctahydro-4H-inden-4-ylidene)ethylidene)-2-methylenecyclohexane-1,3-diol], the pEC50 is 7.00 to 8.00. For `C=C1/C(=C\C=C2/CCC[C@]3(C)[C@@H]([C@H](C)CN4CC(C(C)(F)F)C4)CC[C@@H]23)C[C@@H](O)C[C@@H]1O` [Compound A006, (1R,3S,Z)-5-(2-((1R,3aS,7aR,E)-1-((S)-1-(3-(1,1-difluoroethyl)azetidin-1-yl)propan-2-yl)-7a-methyloctahydro-4H-inden-4-ylidene)ethylidene)-4-methylenecyclohexane-1,3-diol] the value was 7.00 to 8.00. For the compound `C=C1[C@H](O)CC(=C/C=C2\CCC[C@]3(C)[C@@H]([C@H](C)CN4CC(C(C)(F)F)C4)CC[C@@H]23)C[C@H]1O` [Compound A007, (1R,3R)-5-(2-((1R,3aS,7aR,E)-1-((S)-1-(3-(1,1-difluoroethyl)azetidin-1-yl)propan-2-yl)-7a-methyloctahydro-4H-inden-4-ylidene)ethylidene)-2-methylenecyclohexane-1,3-diol], the negative-log EC50 (pEC50) was 7.00 to 8.00. The value for `C=C1/C(=C\C=C2/CCC[C@]3(C)[C@@H]([C@H](C)CN4CC(C(C)(F)F)C4)CC[C@@H]23)C[C@@H](O)[C@H](C)[C@@H]1O` [Compound A008, (1R,2S,3S,Z)-5-(2-((1R,3aS,7aR,E)-1-((S)-1-(3-(1,1-difluoroethyl)azetidin-1-yl)propan-2-yl)-7a-methyloctahydro-4H-inden-4-ylidene)ethylidene)-2-methyl-4-methylenecyclohexane-1,3-diol] was 7.00 to 8.00. For `C=C1/C(=C\C=C2/CCC[C@]3(C)[C@@H]([C@H](C)CN4CC(O)(C(F)(F)F)C4)CC[C@@H]23)C[C@@H](O)C[C@@H]1O` [Compound A009, (1R,3S,Z)-5-(2-((1R,3aS,7aR,E)-1-((S)-1-(3-hydroxy-3-(trifluoromethyl)azetidin-1-yl)propan-2-yl)-7a-methyloctahydro-4H-inden-4-ylidene)ethylidene)-4-methylenecyclohexane-1,3-diol] the value was 8.00 to 9.00; for `C[C@H](CN1CC(O)(C(F)(F)F)C1)[C@H]1CC[C@H]2/C(=C/C=C3C[C@@H](O)C[C@H](O)C3)CCC[C@]12C` [Compound A010, (1R,3R)-5-(2-((1R,3aS,7aR,E)-1-((S)-1-(3-hydroxy-3-(trifluoromethyl)azetidin-1-yl)propan-2-yl)-7a-methyloctahydro-4H-inden-4-ylidene)ethylidene)cyclohexane-1,3-diol], 8.00 to 9.00; for `C=C1[C@H](O)CC(=C/C=C2\CCC[C@]3(C)[C@@H]([C@H](C)CN4CC(O)(C(F)(F)F)C4)CC[C@@H]23)C[C@H]1O` [Compound A011, (1R,3R)-5-(2-((1R,3aS,7aR,E)-1-((S)-1-(3-hydroxy-3-(trifluoromethyl)azetidin-1-yl)propan-2-yl)-7a-methyloctahydro-4H-inden-4-ylidene)ethylidene)-2-methylenecyclohexane-1,3-diol], greater than 9.00.
